According to ChEMBL document CHEMBL2086335, “Three new 12-carbamoylated streptothricins from Streptomyces sp. I08A 1776” (2012):
Converted amounts (≈) assume the structure as drawn.

Assays:
Type in all cases: functional
[1] = system: Mycobacterium tuberculosis; assay: Antibacterial activity against drug-resistant Mycobacterium tuberculosis 164 by microbroth dilution method
[2] = system: Mycobacterium tuberculosis; assay: Antibacterial activity against drug-resistant Mycobacterium tuberculosis 926 by microbroth dilution method
[3] = system: Mycobacterium tuberculosis; assay: Ratio of isoniazid MIC to compound MIC for extensively drug-resistant Mycobacterium tuberculosis
[4] = system: Mycobacterium tuberculosis; assay: Ratio of rifampicin MIC to compound MIC for extensively drug-resistant Mycobacterium tuberculosis

SMILES | MIC [1] [µg/mL] | MIC [2] [µg/mL] | Ratio [3] | Ratio [4]
NCCC[C@H](N)CC(=O)NCCC[C@H](N)CC(=O)N[C@@H]1[C@H](O)[C@@H](O)[C@@H](COC(N)=O)O[C@H]1/N=C1\N[C@@H]2[C@H](O)CNC(=O)[C@H]2N1 | 8 (≈ 12.7 µM) | 8 (≈ 12.7 µM) |  | 
NNC(=O)c1ccncc1 [ISONIAZID] | 4 (≈ 29.2 µM) | 4 (≈ 29.2 µM) |  | 
CO[C@H]1/C=C/O[C@@]2(C)Oc3c(C)c(O)c4c(O)c(c(/C=N/N5CCN(C)CC5)c(O)c4c3C2=O)NC(=O)/C(C)=C\C=C\[C@H](C)[C@H](O)[C@@H](C)[C@@H](O)[C@@H](C)[C@H](OC(C)=O)[C@@H]1C [RIFAMPIN] | 32 (≈ 38.9 µM) | 16 (≈ 19.4 µM) |  | 
NCCC[C@H](N)CC(=O)NCCC[C@H](N)CC(=O)N[C@@H]1[C@H](O)[C@@H](OC(N)=O)[C@@H](CO)O[C@H]1NC1=N[C@@H]2C(=O)NC[C@@H](O)[C@H]2N1 [STREPTOTHRICIN E] | 0.5 (≈ 0.793 µM) | 0.25 (≈ 0.396 µM) | 8 | 8
